# Source: patent US20210009542A1 (Calico Life Sciences LLC, priority 2018, published 2021)
# Where a name gives a salt, the structure may show the parent alone.
# Biological target: T1, His tagged PTPN2 (TC45) protein (Homo sapiens, UniProt P17706)
# T1 construct: made in house
# T1 sequence (P17706 with tags, fused parts or gaps isoform P17706-2): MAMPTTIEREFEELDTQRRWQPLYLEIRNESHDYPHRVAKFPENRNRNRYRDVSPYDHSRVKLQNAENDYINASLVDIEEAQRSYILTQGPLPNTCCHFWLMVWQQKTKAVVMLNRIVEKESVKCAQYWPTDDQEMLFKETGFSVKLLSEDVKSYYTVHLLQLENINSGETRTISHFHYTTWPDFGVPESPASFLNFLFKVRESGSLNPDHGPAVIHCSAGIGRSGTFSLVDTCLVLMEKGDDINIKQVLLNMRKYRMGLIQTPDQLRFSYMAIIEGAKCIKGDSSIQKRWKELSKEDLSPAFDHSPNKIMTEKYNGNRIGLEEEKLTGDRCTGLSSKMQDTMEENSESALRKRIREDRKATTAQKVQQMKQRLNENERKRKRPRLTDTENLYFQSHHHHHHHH
# Assay: Mobility shift assay (MSA) for potency of PTPN2 inhibitors
# Format: biochemical
# Settings: read-out: PTPN2 MSA IC50
# Method: Compound activity was determined using in house His tagged PTPN2 (TC45) protein (SEQ ID NO: 1) in an in vitro enzymatic reaction. The enzymatic assay used to determine activity was a mobility shift assay using a LabChip EZ Reader by Caliper Life Sciences. The enzymatic reaction was carried out in assay buffer (50 mM HEPES pH 7.5, 1 mM EGTA, 10 mM EDTA, 0.01% Tween® 20, and 2 mM DTT). The compounds were dispensed on a white 384 well ProxiPlate™ (PerkinElmer Catalog #6008289) plate using the Labcyte Echo at varying concentrations (12 point, 1:3 dilution). The enzyme (at 0.5 nM) was incubated with compound for 10 minutes at room temperature. Then the substrate (phosphorylated insulin receptor probe sequence: ((OG488)-(NH—CH2—CH2—O—CH2—CH2—O—CH2—CO)-T-R-D-I-(PY)-E-T-D-Y-Y-R-K-K-NH2) (SEQ ID NO: 2) was added at […] to the plates and incubated for another 10 minutes at room temperature. Finally, a quench solution (water and 4-bromo-3-(2-oxo-2-propoxyethoxy)-5-(3-{[1-(phenylmethanesulfonyl)piperidin-4-yl]amino}phenyl)thiophene-2-carboxylic acid) was added to the plates, which were then run on the EZ Reader (excitation 488 nm, emission 530 nm) to measure % conversion (the amount of phosphorylated substrate which was de-phosphorylated by PTPN2). […] The % inhibition was then used to calculate the IC50 values.
row,SMILES,IC50 [nM]
1,"CC(C)NCCOc1ccc2cc(O)c(N3CC(=O)NS3(=O)=O)c(F)c2c1 [Compound 145, 5-(1-fluoro-3-hydroxy-7-{2-[(propan-2-yl)amino]ethoxy}naphthalen-2-yl)-1λ^6,2,5-thiadiazolidine-1,1,3-trione]",10 to 100
2,"COCCS(=O)(=O)N1CC=C(c2ccc3cc(O)c(N4CC(=O)NS4(=O)=O)c(F)c3c2)C1 [Compound 286, 5-{1-fluoro-3-hydroxy-7-[1-(2-methoxyethanesulfonyl)-2,5-dihydro-1H-pyrrol-3-yl]naphthalen-2-yl}-1λ^6,2,5-thiadiazolidine-1,1,3-trione]",< 1
3,"CCNCCOc1ccc2cc(O)c(N3CC(=O)NS3(=O)=O)c(F)c2c1 [Compound 144, 5-{7-[2-(ethylamino)ethoxy]-1-fluoro-3-hydroxynaphthalen-2-yl}-1λ^6,2,5-thiadiazolidine-1,1,3-trione]",1 to 10
4,"Cc1n[nH]c(C)c1-c1ccc2cc(O)c(N3CC(=O)NS3(=O)=O)c(F)c2c1 [Compound 319, 5-[7-(3,5-dimethyl-1H-pyrazol-4-yl)-1-fluoro-3-hydroxynaphthalen-2-yl]-1λ^6,2,5-thiadiazolidine-1,1,3-trione]",1 to 10
5,"O=C1CN(c2c(O)cc3ccc(C4=CCN(S(=O)(=O)CCCC(F)(F)F)C4)cc3c2F)S(=O)(=O)N1 [Compound 290, 5-{1-fluoro-3-hydroxy-7-[1-(4,4,4-trifluorobutane-1-sulfonyl)-2,5-dihydro-1H-pyrrol-3-yl]naphthalen-2-yl}-1λ^6,2,5-thiadiazolidine-1,1,3-trione]",< 1
6,"COC(=O)[C@@H](N)CCOc1ccc2cc(O)c(N3CC(=O)NS3(=O)=O)c(F)c2c1 [Compound 317, methyl (2S)-2-amino-4-{[8-fluoro-6-hydroxy-7-(1,1,4-trioxo-1λ^6,2,5-thiadiazolidin-2-yl)naphthalen-2-yl]oxy}butanoate]",1 to 10
7,"N#CCCCCS(=O)(=O)N1CC=C(c2ccc3cc(O)c(N4CC(=O)NS4(=O)=O)c(F)c3c2)C1 [Compound 293, 5-{3-[8-fluoro-6-hydroxy-7-(1,1,4-trioxo-1λ^6,2,5-thiadiazolidin-2-yl)naphthalen-2-yl]-2,5-dihydro-1H-pyrrole-1-sulfonyl}pentanenitrile]",< 1
8,"CC(C)CCNc1ccc2c(F)c(O)c(N3CC(=O)NS3(=O)=O)c(F)c2c1 [Compound 148, 5-{1,4-difluoro-3-hydroxy-7-[(3-methylbutyl)amino]naphthalen-2-yl}-1λ^6,2,5-thiadiazolidine-1,1,3-trione]",1 to 10
9,"O=C1CN(c2c(O)cc3ccc(OCc4cn[nH]c4)cc3c2F)S(=O)(=O)N1 [Compound 133, 5-{1-fluoro-3-hydroxy-7-[(1H-pyrazol-4-yl)methoxy]naphthalen-2-yl}-1λ6,2,5-thiadiazolidine-1,1,3-trione]",1 to 10
10,"CS(=O)(=O)N1CCC(Oc2ccc3cc(O)c(N4CC(=O)NS4(=O)=O)c(F)c3c2)CC1 [Compound 284, 5-(1-fluoro-3-hydroxy-7-{[1-(methanesulfonyl)piperidin-4-yl]oxy}naphthalen-2-yl)-1λ^6,2,5-thiadiazolidine-1,1,3-trione]",1 to 10
11,"O=C(O)CNc1ccc2cc(O)c(N3CC(=O)NS3(=O)=O)c(F)c2c1 [Compound 280, {[8-fluoro-6-hydroxy-7-(1,1,4-trioxo-1λ^6,2,5-thiadiazolidin-2-yl)naphthalen-2-yl]amino}acetic acid]",10 to 100
12,"O=C1CN(c2c(O)cc3ccc(CNCC4CC4)cc3c2F)S(=O)(=O)N1 [Compound 161, 5-(7-{[(cyclopropylmethyl)amino]methyl}-1-fluoro-3-hydroxynaphthalen-2-yl)-1λ^6,2,5-thiadiazolidine-1,1,3-trione]",10 to 100
13,"Cc1n[nH]c(C)c1COc1ccc2cc(O)c(N3CC(=O)NS3(=O)=O)c(F)c2c1 [Compound 318, 5-{7-[(3,5-dimethyl-1H-pyrazol-4-yl)methoxy]-1-fluoro-3-hydroxynaphthalen-2-yl}-1λ^6,2,5-thiadiazolidine-1,1,3-trione]",1 to 10
14,"O=C1CN(c2c(O)cc3ccc(C4=CCNC4)cc3c2F)S(=O)(=O)N1 [Compound 265, 5-[7-(2,5-dihydro-1H-pyrrol-3-yl)-1-fluoro-3-hydroxynaphthalen-2-yl]-1λ^6,2,5-thiadiazolidine-1,1,3-trione]",1 to 10
15,"C[C@@H](O)CCCc1ccc2cc(O)c(N3CC(=O)NS3(=O)=O)c(F)c2c1 [Compound 151, 5-{1-fluoro-3-hydroxy-7-[(4R)-4-hydroxypentyl]naphthalen-2-yl}-1λ^6,2,5-thiadiazolidine-1,1,3-trione]",1 to 10
16,"O=C1CN(c2c(O)cc3ccc(CCO)cc3c2F)S(=O)(=O)N1 [Compound 175, 5-[1-fluoro-3-hydroxy-7-(2-hydroxyethyl)naphthalen-2-yl]-1λ^6,2,5-thiadiazolidine-1,1,3-trione, Ammonium Salt]",10 to 100
17,"O=C1CN(c2c(O)cc3ccc(-c4cccnc4)cc3c2F)S(=O)(=O)N1 [Compound 266, 5-[1-fluoro-3-hydroxy-7-(pyridin-3-yl)naphthalen-2-yl]-1λ^6,2,5-thiadiazolidine-1,1,3-trione]",1 to 10
18,"O=C1CN(c2c(O)cc3ccc(C4=CCN(S(=O)(=O)C5CCC5)C4)cc3c2F)S(=O)(=O)N1 [Compound 316, 5-{7-[1-(cyclobutanesulfonyl)-2,5-dihydro-1H-pyrrol-3-yl]-1-fluoro-3-hydroxynaphthalen-2-yl}-1λ^6,2,5-thiadiazolidine-1,1,3-trione]",< 1
19,"CC(C)COc1ccc2cc(O)c(N3CC(=O)NS3(=O)=O)c(F)c2c1 [Compound 134, 5-[1-fluoro-3-hydroxy-7-(2-methylpropoxy)naphthalen-2-yl]-1λ^6,2,5-thiadiazolidine-1,1,3-trione]",> 100
20,"O=C1CN(c2c(O)cc3ccc(OCC(F)(F)F)cc3c2F)S(=O)(=O)N1 [Compound 197, 5-[1-fluoro-3-hydroxy-7-(2,2,2-trifluoroethoxy)naphthalen-2-yl]-1λ^6,2,5-thiadiazolidine-1,1,3-trione]",1 to 10
21,"O=C1CN(c2c(O)cc3ccc(C(=O)NCC4CC4)cc3c2F)S(=O)(=O)N1 [Compound 136, N-(cyclopropylmethyl)-8-fluoro-6-hydroxy-7-(1,1,4-trioxo-1λ^6,2,5-thiadiazolidin-2-yl)naphthalene-2-carboxamide]",1 to 10
22,"O=C1CN(c2c(O)cc3ccc(NCC4CC4)cc3c2F)S(=O)(=O)N1 [Compound 202, 5-{7-[(cyclopropylmethyl)amino]-1-fluoro-3-hydroxynaphthalen-2-yl}-1λ^6,2,5-thiadiazolidine-1,1,3-trione]",1 to 10
23,"O=C1CN(c2c(O)cc3ccc(CC4CCN(CC(F)(F)F)C4)cc3c2F)S(=O)(=O)N1 (stereo not shown) [Compound 251, 5-(1-fluoro-3-hydroxy-7-{[1-(2,2,2-trifluoroethyl)pyrrolidin-3-yl]methyl}naphthalen-2-yl)-1λ^6,2,5-thiadiazolidine-1,1,3-trione]",1 to 10
24,"O=C1CN(c2c(O)cc3ccc(OCCNC4CC4)cc3c2F)S(=O)(=O)N1 [Compound 142, 5-{7-[2-(cyclopropylamino)ethoxy]-1-fluoro-3-hydroxynaphthalen-2-yl}-1λ^6,2,5-thiadiazolidine-1,1,3-trione]",1 to 10
25,"CC(C)CCCc1ccc2cc(O)c(N3CC(=O)NS3(=O)=O)c(F)c2c1 [Compound 219, 5-[1-fluoro-3-hydroxy-7-(4-methylpentyl)naphthalen-2-yl]-1λ^6,2,5-thiadiazolidine-1,1,3-trione]",1 to 10
